The source of these data is patent US20240317721A1, “PYRAZOLYL DERIVATIVES AS INHIBITORS OF THE KRAS MUTANT PROTEIN” (NOVARTIS AG, priority 2021, published 2024).

The target in this experiment is KRasG12C (M1-K169, biotinylated on the N-terminus) (Homo sapiens (Human), UniProt P01116, G12C). Description: Covalent competition assay: scintillation proximity assay (SPA) quantifying covalent modification of KRASG12C. Format: binding. Conditions: competition with radiolabeled covalent probe (Compound B/Compound A), 2 hours incubation, 10 nM KRasG12C. In outline:
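Test compounds compete with a radiolabeled covalent probe for modification of N-terminally biotinylated KRasG12C(M1-K169):GDP, final 10 nM protein, 25 nM radio-ligand, 475 nM unlabelled ligand, 2 h with agitation in 20 mM Tris-HCl pH 7.5, 150 mM NaCl, 0.1 mM MgCl2, 0.01% Tween-20.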
(Scintillation proximity formats need no separation of bound from free tracer.)
For orientation: IC50 means the point on the concentration scale where inhibition reaches its midpoint. On to `C=CC(=O)N1CC2(CC(n3nc(N4CCN(C5COC5)CC45CCC5)c(-c4c(C)c(Cl)cc5[nH]ncc45)c3C)C2)C1` (single isomer, unassigned) [Example 79a, 1-(6-(4-(6-chloro-5-methyl-1H-indazol-4-yl)-5-methyl-3-(8-(oxetan-3-yl)-5,8-diazaspiro[3.5]nonan-5-yl)-1H-pyrazol-1-yl)-2-azaspiro[3.3]heptan-2-yl)prop-2-en-1-one], for which the 50% inhibitory concentration (IC50) is over 5000 nM. On to `C=CC(=O)N1CC2(CC(n3nc(N4CC[C@@H](CN5CC6C5CCN6C5COC5)CC4(C)C)c(-c4c(Cl)c(Cl)cc5[nH]ncc45)c3C)C2)C1` (single isomer, unassigned) [Example 277a, 1-(6-(4-(5,6-dichloro-1H-indazol-4-yl)-3-((R)-2,2-dimethyl-4-(((1S*,5S*)-2-(oxetan-3-yl)-2,6-diazabicyclo[3.2.0]heptan-6-yl)methyl)piperidin-1-yl)-5-methyl-1H-pyrazol-1-yl)-2-azaspiro[3.3]heptan-2-yl)prop-2-en-1-one], for which the IC50 was 4500 nM. For `C=CC(=O)N1CC2(CC(n3nc(N4CCN(C)CC45CCC5)c(-c4c(Cl)c(C)cc5[nH]ncc45)c3C)C2)C1` (single isomer, unassigned) [Example 55b, 1-(6-(4-(5-chloro-6-methyl-1H-indazol-4-yl)-5-methyl-3-(8-methyl-5,8-diazaspiro[3.5]nonan-5-yl)-1H-pyrazol-1-yl)-2-azaspiro[3.3]heptan-2-yl)prop-2-en-1-one], the concentration for half-maximal inhibition (IC50) is 34 nM. For the compound `C=CC(=O)N1CC2(CC(n3nc(N4CCC(CN5C[C@@H]6OCCO[C@@H]6C5)CC4(C)C)c(-c4c(Cl)c(Cl)cc5[nH]ncc45)c3C)C2)C1` (single isomer, unassigned) [Example 231b], the 50% inhibitory concentration (IC50) was determined as 11 nM. For `C=CC(=O)N1CC2(CC(n3nc(N4CC[C@@H](CN5CCCC6CN(C)C(=O)C65)CC4(C)C)c(-c4c(Cl)c(Cl)cc5[nH]ncc45)c3C)C2)C1` (single isomer, unassigned) [Example 262a, (4aR*,7aR*)-1-(((R)-1-(1-(2-acryloyl-2-azaspiro[3.3]heptan-6-yl)-4-(5,6-dichloro-1H-indazol-4-yl)-5-methyl-1H-pyrazol-3-yl)-2,2-dimethylpiperidin-4-yl)methyl)-6-methyloctahydro-7H-pyrrolo[3,4-b]pyridin-7-one], the half-maximal inhibitory concentration (IC50) was over 5000 nM. Take `C=CC(=O)N1CC2(CC(n3nc(N4CCN(C(=O)[C@@H]5CCCO5)CC45CCC5)c(-c4c(Cl)c(C)cc5[nH]ncc45)c3C)C2)C1` (single isomer, unassigned) [Example 124b]: the concentration for half-maximal inhibition (IC50) was 20 nM. The result for `C=CC(=O)N1CC2(CC(n3nc(N4CCN(CCO)CC45CCC5)c(-c4c(Cl)c(C)cc5[nH]ncc45)c3C)C2)C1` (single isomer, unassigned) [Example 162a, 1-(6-(4-(5-chloro-6-methyl-1H-indazol-4-yl)-3-(8-(2-hydroxyethyl)-5,8-diazaspiro[3.5]nonan-5-yl)-5-methyl-1H-pyrazol-1-yl)-2-azaspiro[3.3]heptan-2-yl)prop-2-en-1-one] reads over 5000 nM; that for `C=CC(=O)N1CC2(CC(n3nc(N4CCC(N(CC)C5COC5)CC4(C)C)c(-c4c(Cl)c(Cl)cc5[nH]ncc45)c3C)C2)C1` (single isomer, unassigned) [Example 61a, 1-(6-(4-(5,6-dichloro-1H-indazol-4-yl)-3-(4-(ethyl(oxetan-3-yl)amino)-2,2-dimethylpiperidin-1-yl)-5-methyl-1H-pyrazol-1-yl)-2-azaspiro[3.3]heptan-2-yl)prop-2-en-1-one], 881 nM. As to `C=CC(=O)N1CC2(CC(n3nc(N4CC[C@@H](CN(C)S(=O)(=O)N5CCN(C)CC5)CC4(C)C)c(-c4c(Cl)c(Cl)cc5[nH]ncc45)c3C)C2)C1` (single isomer, unassigned) [Example 304b], the concentration for half-maximal inhibition (IC50) was found to be 10 nM.

In the case of `C=CC(=O)N1CC2(CC(n3nc(N4CCC(CN5CCS(=O)(=O)CC5)CC4(C)C)c(-c4c(Cl)c(Cl)cc5[nH]ncc45)c3C)C2)C1` (single isomer, unassigned) [Example 236a, 1-(6-(4-(5,6-dichloro-1H-indazol-4-yl)-3-(4-((1,1-dioxidothiomorpholino)methyl)-2,2-dimethylpiperidin-1-yl)-5-methyl-1H-pyrazol-1-yl)-2-azaspiro[3.3]heptan-2-yl)prop-2-en-1-one], the half-maximal inhibitory concentration (IC50) was determined as 168 nM. The result for `C=CC(=O)N1CC2(CC(n3nc(N4CC[C@@H](CN(C)S(=O)(=O)N5CCN(C)CC5)CC4(C)C)c(-c4c(Cl)c(Cl)cc5[nH]ncc45)c3C)C2)C1` (single isomer, unassigned) [Example 304a] reads over 5000 nM; that for `C=CC(=O)N1CC2(CC(n3nc(N4CCC(N(CC)C5COC5)CC4(C)C)c(-c4c(Cl)c(Cl)cc5[nH]ncc45)c3C)C2)C1` (single isomer, unassigned) [Example 61b, 1-(6-(4-(5,6-dichloro-1H-indazol-4-yl)-3-(4-(ethyl(oxetan-3-yl)amino)-2,2-dimethylpiperidin-1-yl)-5-methyl-1H-pyrazol-1-yl)-2-azaspiro[3.3]heptan-2-yl)prop-2-en-1-one], 6 nM; that for `C=CC(=O)N1CC2(CC(n3nc(N4CC5(CCOC5)C4)c(-c4c(Cl)c(Cl)cc5[nH]ncc45)c3C)C2)C1` (single isomer, unassigned) [Example 108a, 1-(6-(4-(5,6-dichloro-1H-indazol-4-yl)-5-methyl-3-(6-oxa-2-azaspiro[3.4]octan-2-yl)-1H-pyrazol-1-yl)-2-azaspiro[3.3]heptan-2-yl)prop-2-en-1-one], over 5000 nM. On to `C=CC(=O)N1CC2(CC(n3nc(N4CC[C@@H](CN5CC6CC6(O)C5)CC4(C)C)c(-c4c(Cl)c(Cl)cc5[nH]ncc45)c3C)C2)C1` (single isomer, unassigned) [Example 258b], for which the IC50 amounted to 22 nM. The result for `C=CC(=O)N1CC2(CC(n3nc(N4CCC(N(C)C5COC5)CC45CCC5)c(-c4c(Cl)c(C)cc5[nH]ncc45)c3C)C2)C1` (single isomer, unassigned) [Example 51b, 1-(6-(4-(5-chloro-6-methyl-1H-indazol-4-yl)-5-methyl-3-(8-(methyl(oxetan-3-yl)amino)-5-azaspiro[3.5]nonan-5-yl)-1H-pyrazol-1-yl)-2-azaspiro[3.3]heptan-2-yl)prop-2-en-1-one] reads 668 nM; that for `C=CC(=O)N1CC2(CC(n3nc(N4CCC(O)(CN5CCOCC5)CC4(C)C)c(-c4c(Cl)c(Cl)cc5[nH]ncc45)c3C)C2)C1` (single isomer, unassigned) [Example 237b, 1-(6-(4-(5,6-dichloro-1H-indazol-4-yl)-3-(4-hydroxy-2,2-dimethyl-4-(morpholinomethyl)piperidin-1-yl)-5-methyl-1H-pyrazol-1-yl)-2-azaspiro[3.3]heptan-2-yl)prop-2-en-1-one], 31 nM; that for `C=CC(=O)N1CC2(CC(n3nc(N4CC[C@@H](CN5CC6(CCN(S(C)(=O)=O)C6)C5)CC4(C)C)c(-c4c(Cl)c(Cl)cc5[nH]ncc45)c3C)C2)C1` (single isomer, unassigned) [Example 297b], 9 nM.

Consider `C=CC(=O)N1CC2(CC(n3nc(N4CC[C@@H](CN5CCN(C6COC6)CC5)CC4(C)C)c(-c4c(C)c(Cl)cc5[nH]ncc45)c3C)C2)C1` (single isomer, unassigned) [Example 244a], for which the IC50 came out at 1400 nM.

As to `C=CC(=O)N1CC2(CC(n3nc(N4CCN(C5CCOCC5)C[C@@]4(C)C(F)F)c(-c4c(Cl)c(Cl)cc5[nH]ncc45)c3C)C2)C1` (single isomer, unassigned) [Example 106a], the IC50 is over 5000 nM. For `C=CC(=O)N1CC2(CC(n3nc(N4CCN(C5CCOCC5)C[C@]4(C)COC)c(-c4c(Cl)c(C)cc5[nH]ncc45)c3C)C2)C1` (single isomer, unassigned) [Example 149a], the IC50 was found to be 766 nM. For `C=CC(=O)N1CC2(CC(n3nc(N4CC[C@@H](CN5CCC6COCC65)CC4(C)C)c(-c4c(C)c(Cl)cc5[nH]ncc45)c3C)C2)C1` (single isomer, unassigned) [Example 306a, 1-(6-(4-(6-chloro-5-methyl-1H-indazol-4-yl)-3-((R)-4-(((3aR*,6aR*)-hexahydro-1H-furo[3,4-b]pyrrol-1-yl)methyl)-2,2-dimethylpiperidin-1-yl)-5-methyl-1H-pyrazol-1-yl)-2-azaspiro[3.3]heptan-2-yl)prop-2-en-1-one], the IC50 was over 5000 nM.

Consider `C=CC(=O)N1CC2(CC(n3nc(N4CC[C@@H](CN5CCN6C(=O)OCC6C5)CC4(C)C)c(-c4c(Cl)c(Cl)cc5[nH]ncc45)c3C)C2)C1` (single isomer, unassigned) [Example 312b], for which the IC50 turned out to be 9 nM. In the case of `C=CC(=O)N1CC2(CC(n3nc(N4CCN(C(C)=O)CC4)c(-c4c(Cl)ccc5[nH]ncc45)c3C)C2)C1C` (single isomer, unassigned) [Example 196a, 1-(6-(3-(4-acetylpiperazin-1-yl)-4-(5-chloro-1H-indazol-4-yl)-5-methyl-1H-pyrazol-1-yl)-1-methyl-2-azaspiro[3.3]heptan-2-yl)prop-2-en-1-one] it was over 50000 nM. Take `C=CC(=O)N1CC2(CC(n3nc(N4CCN(C(C)=O)CC45CCC5)c(-c4c(Cl)c(C)cc5[nH]ncc45)c3C)C2)C1` (single isomer, unassigned) [Example 21a, 1-(6-(3-(8-acetyl-5,8-diazaspiro[3.5]nonan-5-yl)-4-(5-chloro-6-methyl-1H-indazol-4-yl)-5-methyl-1H-pyrazol-1-yl)-2-azaspiro[3.3]heptan-2-yl)prop-2-en-1-one]: the 50% inhibitory concentration (IC50) was determined as 11100 nM. `C=CC(=O)N1CC2(CC(n3nc(N4CCN(c5nccn5C)C[C@]4(C)CC)c(-c4c(Cl)c(C)cc5[nH]ncc45)c3C)C2)C1` (single isomer, unassigned) [Example 194b]: the half-maximal inhibitory concentration (IC50) was determined as 1300 nM. For `C=CC(=O)N1CC2(CC(n3nc(N4CC[C@@H](CN5CCN6CCOC[C@H]6C5)CC4(C)C)c(-c4c(Cl)c(Cl)cc5[nH]ncc45)c3C)C2)C1` (single isomer, unassigned) [Example 288b], the IC50 amounted to 10 nM.
